Laboratory results reported in US8481582B2, “1,3-dihydroimidazole-2-thione derivatives as inhibitors of dopamine-beta-hydroxylase” (Bial-Portela & CA, S.A., priority 2007, dated 2013).

Legend:
[1] = central as well as peripheral effects; cited from earlier work
[2] = tested on: noradrenaline levels in the heart and parietal cortex; assay: Noradrenaline levels in heart and parietal cortex of mice 9 h after oral dosing; format: in vivo, Male NMRI mice; conditions: oral gavage, 9 h post dose, FIG. 1, compared with prior art DβH inhibitors
Protocol: Male NMRI mice were obtained from Harlan-Interfauna (Spain) and were kept 10 per cage under controlled environmental conditions (12 h light/dark cycle and room temperature 22±1° C.). Food and tap water were allowed ad libitum and experimentation was performed during daylight hours.
At time=0 h, animals were administered with either test compounds (see FIG. 2) at a given dose or vehicle (water) delivered orally via gavage. At 9 h post dose, the animals were sacrificed by decapitation and heart (left atrium and left ventricle) and brain (parietal cortex) were isolated, weighed and stored in a volume of 0.2 M perchloric acid for 12 h at 4° C. in the dark. Post incubation, the resulting supernatants were collected by centrifuge filtration of incubates ([…]/10 min/˜5000 rpm, 4° C.). Supernatants were stored frozen at −80° C. until analysis. Quantification of dopamine and noradrenaline in supernatants was performed by high pressure liquid chromatography with electrochemical detection.

For `NCc1c[nH]c(=S)n1[C@H]1CCc2c(F)cc(F)cc2C1` [nepicastat], the “crossing of the blood brain barrier (BBB)” value [1] is listed as “cross the blood brain barrier”.

For `Fc1cc(F)c2c(c1)CC(n1c(CCNCc3ccccc3)c[nH]c1=S)CO2` (single isomer, unassigned) [formula X], the “effect on noradrenaline levels in the heart and parietal cortex (heart vs brain selectivity)” value [2] was “marked selectivity for the heart compared to the brain”.
